Assay results from the supplement of paper PMC8149375.

Tests used:
Details in all cases: treatment: drug + dasatinib (fixed dose, not stated); 5 days
[1] = tested on: CAKI-1; assay: AUC of dose-response viability curve, drug + dasatinib, normalised to DMSO (arbitrary (AUC of normalised viability)); higher = less growth inhibition
Procedure: (§1)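 Primary HTS combination arm: 8 RCC cell lines treated with 8 doses (up to 10 uM) of each library drug plus a fixed dose of dasatinib (dose not stated) for 5 days; viability read by CellTiter-Glo and normalised to DMSO. GI50 was fitted with XLfit, AUC is the area under the dose-response curve, and minimum viability is the lowest fraction of DMSO viability across doses.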

[2] = tested on: TK-10; assay: as above
Procedure: as §1

[3] = tested on: A498; assay: as above
Procedure: as §1

[4] = tested on: UO-31; assay: as above
Procedure: as §1

[5] = tested on: 769-P; assay: as above
Procedure: as §1

[6] = tested on: SN12C; assay: as above
Procedure: as §1

[7] = tested on: 786-O; assay: as above
Procedure: as §1

[8] = tested on: ACHN; assay: as above
Procedure: as §1

[9] = tested on: CAKI-1; assay: GI50 of drug in presence of dasatinib; higher = less potent
Procedure: as §1

[10] = tested on: TK-10; assay: as above
Procedure: as §1

[11] = tested on: A498; assay: as above
Procedure: as §1

[12] = tested on: UO-31; assay: as above
Procedure: as §1

[13] = tested on: 769-P; assay: as above
Procedure: as §1

[14] = tested on: SN12C; assay: as above
Procedure: as §1

[15] = tested on: 786-O; assay: as above
Procedure: as §1

[16] = tested on: ACHN; assay: as above
Procedure: as §1

[17] = tested on: CAKI-1; assay: minimum viability across doses, drug + dasatinib, relative to DMSO (fraction); higher = less growth inhibition
Procedure: as §1

[18] = tested on: TK-10; assay: as above
Procedure: as §1

[19] = tested on: A498; assay: as above
Procedure: as §1

[20] = tested on: UO-31; assay: as above
Procedure: as §1

[21] = tested on: 769-P; assay: as above
Procedure: as §1

[22] = tested on: SN12C; assay: as above
Procedure: as §1

[23] = tested on: 786-O; assay: as above
Procedure: as §1

[24] = tested on: ACHN; assay: as above
Procedure: as §1

| Structure (SMILES) | AUC of dose-response viability curve [1] | AUC of dose-response viability curve [2] | AUC of dose-response viability curve [3] | AUC of dose-response viability curve [4] | AUC of dose-response viability curve [5] | AUC of dose-response viability curve [6] | AUC of dose-response viability curve [7] | AUC of dose-response viability curve [8] | GI50 of drug [9] [µM] | GI50 of drug [10] [µM] | GI50 of drug [11] [µM] | GI50 of drug [12] [µM] | GI50 of drug [13] [µM] | GI50 of drug [14] [µM] | GI50 of drug [15] [µM] | GI50 of drug [16] [µM] | minimum viability across doses [17] | minimum viability across doses [18] | minimum viability across doses [19] | minimum viability across doses [20] | minimum viability across doses [21] | minimum viability across doses [22] | minimum viability across doses [23] | minimum viability across doses [24] |
| --- | --- | --- | --- | --- | --- | --- | --- | --- | --- | --- | --- | --- | --- | --- | --- | --- | --- | --- | --- | --- | --- | --- | --- | --- |
| Cc1cc(C)c(/C=C2\C(=O)Nc3ccccc32)[nH]1 [Semaxanib (SU5416)] + Cc1nc(Nc2ncc(C(=O)Nc3c(C)cccc3Cl)s2)cc(N2CCN(CCO)CC2)n1 [dasatinib] | 2.21 | 2.54 | 3.96 | 4.67 | 2.48 | 2.46 | 2.4 | 1.99 | > 10 | > 10 | > 10 | > 10 | > 10 | > 10 | > 10 | > 10 | 0.584 | 0.657 | 1.01 | 1.2 | 0.658 | 0.666 | 0.606 | 0.472 |
| CNC(=O)c1cc(Oc2ccc(NC(=O)Nc3ccc(Cl)c(C(F)(F)F)c3)cc2)ccn1.Cc1ccc(S(=O)(=O)O)cc1 [Sorafenib (Nexavar)] + Cc1nc(Nc2ncc(C(=O)Nc3c(C)cccc3Cl)s2)cc(N2CCN(CCO)CC2)n1 [dasatinib] | 2.42 | 2.72 | 2.94 | 2.41 | 2.31 | 2.52 | 2.32 | 2.33 | 4.81 | 9.08 | 7.05 | 1.53 | 3.77 | 5.96 | 2.2 | 3.17 | 0.118 | 0.471 | 0.245 | 0.138 | 0.249 | 0.265 | 0.174 | 0.0615 |
| CN1CCN(c2nc(C3=C(c4c[nH]c5ccccc45)C(=O)NC3=O)c3ccccc3n2)CC1 [Sotrastaurin (AEB071)] + Cc1nc(Nc2ncc(C(=O)Nc3c(C)cccc3Cl)s2)cc(N2CCN(CCO)CC2)n1 [dasatinib] | 2.44 | 2.84 | 3.6 | 4.79 | 2.3 | 2.45 | 3.14 | 2.04 | > 10 | > 10 | > 10 | > 10 | > 10 | > 10 | > 10 | > 10 | 0.555 | 0.663 | 0.904 | 1.16 | 0.673 | 0.661 | 0.674 | 0.536 |
| CN[C@@H]1C[C@H]2O[C@@](C)([C@@H]1OC)n1c3ccccc3c3c4c(c5c6ccccc6n2c5c31)C(=O)NC4 [Staurosporine] + Cc1nc(Nc2ncc(C(=O)Nc3c(C)cccc3Cl)s2)cc(N2CCN(CCO)CC2)n1 [dasatinib] | 0.0603 | 0.303 | 1.07 | 0.0461 | 0.201 | 0.755 | 0.109 | 0.372 | < 0.003 | < 0.003 | 0.0323 | < 0.003 | < 0.003 | 0.0104 | < 0.003 | 0.0036 | 0.00221 | 0.0201 | 0.0115 | 0.0095 | 0.0048 | 0.00331 | 0.00375 | 0.00268 |
| CCN(CC)CCNC(=O)c1c(C)[nH]c(/C=C2\C(=O)Nc3ccc(F)cc32)c1C.O=C(O)C[C@H](O)C(=O)O [Sunitinib Malate (Sutent)] + Cc1nc(Nc2ncc(C(=O)Nc3c(C)cccc3Cl)s2)cc(N2CCN(CCO)CC2)n1 [dasatinib] | 1.81 | 2.52 | 2.52 | 2.59 | 2.26 | 1.88 | 2.49 | 1.58 | 0.496 | 2.86 | 2.02 | 1.02 | 3.14 | 1.53 | 2.52 | 0.281 | 0.00649 | 0.221 | 0.167 | 0.0138 | 0.0812 | 0.0218 | 0.0195 | 0.0769 |
| CCS(=O)(=O)c1cccc(-c2cc(C(=O)NC3CCN(C)CC3)c(C)c3[nH]c4ncc(C)cc4c23)c1 [TAK-901] + Cc1nc(Nc2ncc(C(=O)Nc3c(C)cccc3Cl)s2)cc(N2CCN(CCO)CC2)n1 [dasatinib] | 1.62 | 1.93 | 2.63 | 4.3 | 2.27 | 1.52 | 1.55 | 1.5 | 0.318 | 0.607 | 0.588 | 8.85 | 4.01 | 0.347 | 0.171 | 0.235 | 0.0186 | 0.0604 | 0.013 | 0.287 | 0.344 | 0.00509 | 0.00567 | 0.0237 |
| Nc1nc(N)c2nc(-c3cccc(O)c3)c(-c3cccc(O)c3)nc2n1 [TG100-115] + Cc1nc(Nc2ncc(C(=O)Nc3c(C)cccc3Cl)s2)cc(N2CCN(CCO)CC2)n1 [dasatinib] | 2.12 | 2.71 | 3.23 | 3.95 | 2.32 | 2.52 | 2.76 | 2.04 | 3.15 | > 10 | > 10 | > 10 | 6.88 | > 10 | > 10 | 2.73 | 0.308 | 0.739 | 0.882 | 1.03 | 0.463 | 0.637 | 0.681 | 0.368 |
